Key:
[1] = Ex vivo plasma protein binding, terminal bleed after 5 days of acute dosing; assay type: in vitro ADME; conditions: rabbit, plasma from dosed rabbits (ex vivo), oral, 30 mg/kg, terminal bleed after 5 days 30 mg/kg, week 12
[2] = Plasma free selvigaltin pharmacokinetics, acute 5-day treatment; assay type: in vivo, rabbit
Text: The dose employed was established based on pilot pharmacokinetics studies in rabbits performed historically in naïve rabbits (data not shown). This first part of the study allowed the determination of the therapeutic benefits of selvigaltin following acute treatment, thus validating the model for further investigation of this mechanism in a chronic treatment protocol.
After 1 week of standard diet, animals (n = 12) were randomly assigned to the following groups (Table 1A): • Control rabbits continued to receive a regular diet (RD) for 12 weeks and were treated for 5 days (days 1–5, p.o.), during the last week before culling, with either vehicle; RD+1W Veh group] or GB1211 (30 mg/kg; RD + 1W 30 mg group); • Rabbits received a high fat diet (HFD) for 12 weeks (RD implemented with 0.5% cholesterol and 2.5% vegetable fat) and were treated for 5 days (days 1–5, p.o.), during the last week before culling, with either vehicle (HFD + 1W Veh group) or GB1211 (30 mg/kg; HFD + 1W 30 mg group).
Liver homogenates were prepared by homogenisation of 200 mg liver tissue/ml water using a Fisherbrand™ Homogenizer 150 (Thermo Fisher Scientific, Waltham, MA). Plasma or liver homogenate were mixed 1 part matrix with 3 parts acetonitrile prior to centrifugation at 10,000 g for 10 min at 18°C with supernatant diluted x4 with water prior to LC-MS/MS analysis.

[3] = system: high fat diet (HFD) rabbit model of metabolic-associated steatohepatitis (MASH); test: HFD rabbit study, prolonged 4-week treatment: liver histomorphology and immunohistochemistry; assay type: in vivo, New Zealand White rabbits; conditions: weeks 9–12; for Ballooning score 0 (no ballooning), share of animals / Ballooning score 1 (few ballooned cells), share of animals / Ballooning score 2 (prominent ballooning), share of animals / Fibrosis (Ishak Score) 0, share of animals / Fibrosis (Ishak Score) 1, share of animals / Fibrosis (Ishak Score) 2, share of animals / Fibrosis (Ishak Score) 3, share of animals / Fibrosis (Ishak Score) 4, share of animals / Fibrosis (Ishak Score) 5, share of animals / Inflammation score 0 (no foci), share of animals / Inflammation score 1 (<2 foci), share of animals / Inflammation score 2 (2–4 foci), share of animals / Inflammation score 3 (> 4 foci), share of animals: n=7
Method: After 1 week (W) of RD, the animals (n = 44) were randomly assigned to the following groups (Table 1B): • Control rabbits continued to receive a RD for 12 weeks and were treated with vehicle for 5 days a week (days 1–5, p.o.) during the last 4 weeks before culling (RD + 4W Veh group); • Rabbits received a HFD for 8 weeks and were culled (HFD 8W group); • Rabbits received a HFD for 12 weeks and were treated with vehicle for 5 days a week (days 1–5, p.o.) during the last 4 weeks before culling (HFD+4W Veh group); • Rabbits received a HFD for 12 weeks and were treated with GB1211 (0.3 mg/kg) for 5 days a week (days 1–5, p.o.) during the last 4 weeks before culling (HFD + 4W 0.3 mg group); • Rabbits received a HFD for 12 weeks and were treated with GB1211 (1.0 mg/kg) for 5 days a week (days 1–5, p.o.) during the last 4 weeks before culling (HFD + 4W 1.0 mg group); • Rabbits received a HFD for 12 weeks and were treated with GB1211 (5.0 mg/kg) for 5 days a week (days 1–5, p.o.) during the last 4 weeks before culling (HFD + 4W 5.0 mg group).
Liver specimens were fixed in 10% buffered formalin (Sigma-Aldrich Corp., St. Louis, MO), paraffin embedded and sectioned at a thickness of 5 μm with a microtome. The slides were stained with hematoxylin and eosin (H&E; both Bio-Optica, Milan, Italy), following standard protocols for histological analysis, to evaluate the general morphology and tissue structure, and then analyzed to evaluate inflammation and […] using Giemsa and Masson’s trichrome staining, respectively. Briefly, deparaffinized and rehydrated sections were incubated with Giemsa (Bio-Optica) in distilled water at ratio 1:1 or with Masson’s trichrome (Bio-Optica), following the manufacturer’s instructions, as previously described ([Vignozzi et al., 2014]). To evaluate lipid accumulation, liver specimens were also cryosectioned at a thickness of 8 μm, fixed with 4% paraformaldehyde, treated for 2–5 min with isopropanol and stained with Oil Red O (Bio-Optica) for 20 min, following the manufacturer’s instructions.
In liver, collagen content evaluation for fibrosis grade and quantification was conducted by staining using Picrosirius Red Stain kit (Bio-Optica), as per manufacturer’s instructions. Briefly, deparaffinized and rehydrated sections were incubated with the staining solution for 50 min, rinsed with the appropriate reagents and with distilled water, dehydrated through ascending alcohols and xylene, and mounted, as previously described ([Comeglio et al., 2017]).
The expression of RAM11, galectin-3, and vimentin was evaluated by immunohistochemical analysis on 5 μm thick paraffin embedded liver sections. Briefly, deparaffinized and rehydrated sections were incubated overnight at 4°C with mouse monoclonal anti-RAM11 (1:80; Dako, Carpenteria, CA), mouse monoclonal anti-galectin-3 (1:100; Abcam, Cambridge, United Kingdom) or mouse monoclonal anti-vimentin (1:800; Santa Cruz Biotechnology, Dallas, TX) antibodies, followed by biotinylated anti-mouse secondary antibody (Millipore, Burlington, MA) and streptavidin-peroxidase complex (Millipore). The reaction product was developed with 3′,3′-diaminobenzidine tetrahydrochloride as chromogen (Merck KgaA, Darmstadt, Germany). Negative controls were performed avoiding primary antibody. Percentage of the sampled area for galectin-3 and vimentin staining was obtained on ×200 and ×40 original magnification slides, respectively, using ImageJ software on five fields for each slide. Semi-quantitative staining of percentage of the sampled area for Picrosirius Red, Oil Red O, galectin-3 and vimentin was obtained using open source Java-based ImageJ software (Fiji bundle, https://imagej.net/). All slides were evaluated blindly and photographed using a Nikon Microphot-FXA microscope (Nikon, Tokyo, Japan).

OC[C@H]1O[C@H](Sc2cncc(Br)c2)[C@H](O)[C@@H](n2cc(-c3cc(F)c(F)c(F)c3)nn2)[C@H]1O [selvigaltin]
fraction unbound at 5 days ([1]; HFD rabbits): 0.929 | fraction unbound at 5 days ([1]; RD rabbits): 0.946 | steady state systemic plasma drug concentration vs rabbit galectin-3 binding KD ([2]; 30 mg/kg/day p.o., acute treatment): ~40 fold | plasma exposure in HFD+1W 30 mg vs RD+1W 30 mg ([2]; day 4 of treatment, 30 mg/kg p.o.): marginal increase in exposure | Picrosirius Red percentage of fibrosis area ([3]; HFD rabbits, 0.3 mg and 5.0 mg dosages): only partially counteracted | Ballooning score 0 (no ballooning), share of animals ([3]; HFD rabbits, 0.3 mg/kg p.o.): 0.0% | Ballooning score 1 (few ballooned cells), share of animals ([3]; HFD rabbits, 0.3 mg/kg p.o.): 42.9% | Ballooning score 2 (prominent ballooning), share of animals ([3]; HFD rabbits, 0.3 mg/kg p.o.): 57.1% | Fibrosis (Ishak Score) 0, share of animals ([3]; HFD rabbits, 0.3 mg/kg p.o.): 0.0% | Fibrosis (Ishak Score) 1, share of animals ([3]; HFD rabbits, 0.3 mg/kg p.o.): 14.3% | Fibrosis (Ishak Score) 2, share of animals ([3]; HFD rabbits, 0.3 mg/kg p.o.): 0.0% | Fibrosis (Ishak Score) 3, share of animals ([3]; HFD rabbits, 0.3 mg/kg p.o.): 57.1% | Fibrosis (Ishak Score) 4, share of animals ([3]; HFD rabbits, 0.3 mg/kg p.o.): 28.6% | Fibrosis (Ishak Score) 5, share of animals ([3]; HFD rabbits, 0.3 mg/kg p.o.): 0.0% | Inflammation score 0 (no foci), share of animals ([3]; HFD rabbits, 0.3 mg/kg p.o.): 14.3% | Inflammation score 1 (<2 foci), share of animals ([3]; HFD rabbits, 0.3 mg/kg p.o.): 42.8% | Inflammation score 2 (2–4 foci), share of animals ([3]; HFD rabbits, 0.3 mg/kg p.o.): 42.8% | Inflammation score 3 (> 4 foci), share of animals ([3]; HFD rabbits, 0.3 mg/kg p.o.): 0.0% | Ballooning score 0 (no ballooning), share of animals ([3]; HFD rabbits, 1.0 mg/kg p.o.): 0.0% | Ballooning score 1 (few ballooned cells), share of animals ([3]; HFD rabbits, 1.0 mg/kg p.o.): 85.7% | Ballooning score 2 (prominent ballooning), share of animals ([3]; HFD rabbits, 1.0 mg/kg p.o.): 14.3% | Fibrosis (Ishak Score) 0, share of animals ([3]; HFD rabbits, 1.0 mg/kg p.o.): 0.0% | Fibrosis (Ishak Score) 1, share of animals ([3]; HFD rabbits, 1.0 mg/kg p.o.): 0.0% | Fibrosis (Ishak Score) 2, share of animals ([3]; HFD rabbits, 1.0 mg/kg p.o.): 85.7% | Fibrosis (Ishak Score) 3, share of animals ([3]; HFD rabbits, 1.0 mg/kg p.o.): 14.3% | Fibrosis (Ishak Score) 4, share of animals ([3]; HFD rabbits, 1.0 mg/kg p.o.): 0.0% | Fibrosis (Ishak Score) 5, share of animals ([3]; HFD rabbits, 1.0 mg/kg p.o.): 0.0% | Inflammation score 0 (no foci), share of animals ([3]; HFD rabbits, 1.0 mg/kg p.o.): 14.3% | Inflammation score 1 (<2 foci), share of animals ([3]; HFD rabbits, 1.0 mg/kg p.o.): 71.4% | Inflammation score 2 (2–4 foci), share of animals ([3]; HFD rabbits, 1.0 mg/kg p.o.): 14.3% | Inflammation score 3 (> 4 foci), share of animals ([3]; HFD rabbits, 1.0 mg/kg p.o.): 0.0% | Liver steatosis (Oil Red O staining) ([3]; HFD rabbits, 1.0 mg/kg, not significantly different from controls): mild beneficial effect | Picrosirius Red percentage of fibrosis area ([3]; HFD rabbits, 1.0 mg/kg, p < 0.05 vs. HFD + Veh): normalized | Vimentin positivity in liver ([3]; HFD rabbits, 1.0 mg/kg, p = 0.072 vs. HFD + Veh): borderline reduction | Ballooning score 0 (no ballooning), share of animals ([3]; HFD rabbits, 5.0 mg/kg p.o.): 0.0% | Ballooning score 1 (few ballooned cells), share of animals ([3]; HFD rabbits, 5.0 mg/kg p.o.): 57.1% | Ballooning score 2 (prominent ballooning), share of animals ([3]; HFD rabbits, 5.0 mg/kg p.o.): 42.9% | Fibrosis (Ishak Score) 0, share of animals ([3]; HFD rabbits, 5.0 mg/kg p.o.): 0.0% | Fibrosis (Ishak Score) 1, share of animals ([3]; HFD rabbits, 5.0 mg/kg p.o.): 0.0% | Fibrosis (Ishak Score) 2, share of animals ([3]; HFD rabbits, 5.0 mg/kg p.o.): 42.8% | Fibrosis (Ishak Score) 3, share of animals ([3]; HFD rabbits, 5.0 mg/kg p.o.): 42.8% | Fibrosis (Ishak Score) 4, share of animals ([3]; HFD rabbits, 5.0 mg/kg p.o.): 14.3% | Fibrosis (Ishak Score) 5, share of animals ([3]; HFD rabbits, 5.0 mg/kg p.o.): 0.0% | Inflammation score 0 (no foci), share of animals ([3]; HFD rabbits, 5.0 mg/kg p.o.): 0.0% | Inflammation score 1 (<2 foci), share of animals ([3]; HFD rabbits, 5.0 mg/kg p.o.): 100.0% | Inflammation score 2 (2–4 foci), share of animals ([3]; HFD rabbits, 5.0 mg/kg p.o.): 0.0% | Inflammation score 3 (> 4 foci), share of animals ([3]; HFD rabbits, 5.0 mg/kg p.o.): 0.0% | Liver steatosis (Oil Red O staining) ([3]; HFD rabbits, 0.3, 1.0, 5.0 mg/kg): without significant differences among HFD groups | Galectin-3 immunohistochemical positivity in liver ([3]; HFD rabbits, all selvigaltin treatments (0.3, 1.0, 5.0 mg/kg)): only partially abated

Reference: publication PMC11322497 (Frontiers in Pharmacology, 2024)
